Here are results for 8 molecules from ChEMBL document CHEMBL1201862, “PubChem BioAssay data set” (2004).

The structures appear in SMILES notation.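 A five-concentration, 48-hour dose response in 96-well plates underlies each endpoint, interpolated linearly between surrounding concentrations. At the GI50, growth is halved.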 Active and inactive are the calls of the source. No stated cut-off is given here; in the data, active = GI50 up to about 1.1 µM and inactive = higher. A value given as a limit tells only on which side of the number the result lay.

Holding throughout (assay): NCI anticancer screen, dose series, 48 h
Assay [1] concerns UACC-62.
Assay [2] deals with SF-295.
Assay [3] relates to HOP-62.
Assay [4] relates to HL-60.
Assay [5] deals with OVCAR-5.
The test system of assay [6] is IGROV-1.
Assay [7] relates to OVCAR-4.
For assay [8], the system named is HCT-15.
The test system of assay [9] is SK-MEL-28.
In assay [10] the test system is SNB-19.
The subject of assay [11] is MCF7.
Assay [12] deals with 786-0.
In assay [13] the test system is UACC-257.
The test system of assay [14] is A549.
The test system of assay [15] is U-251.
For assay [16], the system named is SN12C.
Assay [17] concerns HT-29.
The subject of assay [18] is MOLT-4.
Assay [19] concerns OVCAR-3.

Take `CCN(CC)Cc1cc(Nc2c3ccccc3nc3c2[nH]c2ccccc23)cc(CN(CC)CC)c1O`: the GI50 was 1.55 µM (inactive) in [1]; 1.28 µM (inactive) in assay [2]; 0.598 µM (active) in assay [3]; 2.86 µM (inactive) in assay [4]; 2.01 µM (inactive) in assay [5]; 0.861 µM (active) in [6]. Moreover, the GI50 was 0.468 µM (active) in assay [7]; 0.684 µM in assay [8]; 2.4 µM (inactive) in assay [9]; 1.21 µM (inactive) in [10]; 1.34 µM (inactive) in [11]; 0.216 µM (active) in [12]. The GI50 in assay [13] was 1.42 µM (inactive); in [14], 0.566 µM (active); in [15], 0.513 µM (active); in assay [16], 0.412 µM (active); in assay [17] it was 0.35 µM (active).
Consider `O=C(COc1ccc(OCC(=O)N2C(=O)CS/C2=N\c2ccccc2)cc1)N1C(=O)CS/C1=N\c1ccccc1`, for which the GI50 was 8.13 µM (inactive) in [1]; 33.3 µM (inactive) in [2]; 12.7 µM (inactive) in [5]; 2.38 µM (inactive) in assay [6]; 33.5 µM (inactive) in assay [7]; 28.1 µM in [8]. Moreover, the GI50 in assay [9] was 5.6 µM (inactive); in assay [10], 31.6 µM (inactive); in assay [18], 14.6 µM (inactive); in assay [11], 19 µM (inactive); in assay [12] it was 19.2 µM (inactive); in assay [13], 23.7 µM (inactive). In addition, the GI50 in [14] was 23.6 µM (inactive); in assay [15] it was 31.8 µM (inactive); in assay [16] it was 24.8 µM (inactive); in [17] it was 14.4 µM (inactive).
On to `O=C1Sc2sc(=S)sc2SC1c1ccccc1` (stereo not given), for which the GI50 in assay [1] is 26.8 µM (inactive); in assay [2], > 81.1 µM (inactive); in [3], > 100 µM (inactive); in assay [4] it was 20 µM (inactive); in [5], > 100 µM (inactive); in assay [6] it was > 100 µM (inactive). In addition, the GI50 in assay [7] was 18.3 µM (inactive); in [8] it was 19.4 µM; in assay [9], > 45.6 µM (inactive); in assay [10], > 73.1 µM (inactive); in assay [18], 31.6 µM (inactive); in [11] it was 67.9 µM (inactive). Moreover, the GI50 in assay [19] was 29.8 µM (inactive); in assay [13], > 74.3 µM (inactive); in [14], > 100 µM (inactive); in assay [15] it was 52.5 µM (inactive); in assay [16], > 89.7 µM (inactive); in assay [17], 40.8 µM (inactive).
For the molecule `COc1ccc(-c2cc(-c3ccco3)c(C#N)c(=S)n2C2OC(CO)C(O)C(O)C2O)cc1` (stereo not given), the GI50 was 80.4 µM (inactive) in [2]; > 100 µM (inactive) in assay [3]; > 100 µM (inactive) in assay [5]; 92.3 µM (inactive) in assay [6]; > 100 µM (inactive) in assay [7]; above 100 µM in [8]. Moreover, the GI50 in assay [9] is > 100 µM (inactive); in [10], > 100 µM (inactive); in [18], > 100 µM (inactive); in [11] it was 58.6 µM (inactive); in assay [12], > 100 µM (inactive); in assay [19] it was 49.7 µM (inactive). The GI50 in assay [13] was > 100 µM (inactive); in assay [14], > 100 µM (inactive); in assay [15], 82.8 µM (inactive); in assay [16] it was > 100 µM (inactive); in assay [17] it was > 100 µM (inactive).
Consider `CN(C)CCCN1C(=S)N(CCCN(C)C)c2c3ccccc3nc3c([N+](=O)[O-])ccc1c23`, for which the GI50 was 9.95 µM (inactive) in [1]; 8.38 µM (inactive) in [2]; 8.95 µM (inactive) in assay [3]; 13.8 µM (inactive) in [5]; 3.06 µM (inactive) in [6]; 11.5 µM (inactive) in [7]. Also, the GI50 in assay [8] is 5.09 µM; in assay [9], 13.6 µM (inactive); in [10] it was 8.67 µM (inactive); in [18], 5.58 µM (inactive); in assay [11], 5.47 µM (inactive); in assay [12], 4.82 µM (inactive). Further, the GI50 in assay [19] was 6.21 µM (inactive); in assay [13] it was 6.01 µM (inactive); in [14], 5.41 µM (inactive); in assay [15], 6.87 µM (inactive); in assay [16], 4.15 µM (inactive); in [17] it was 2.94 µM (inactive).
`COc1cc2nc3n(c(=O)c2cc1OC)-c1ccc([N+](=O)[O-])cc1C3=O`: the GI50 was 30.5 µM (inactive) in [1]; 83.2 µM (inactive) in assay [2]; > 100 µM (inactive) in assay [3]; > 100 µM (inactive) in assay [5]; 26.1 µM (inactive) in assay [6]; 15 µM (inactive) in [7]. The GI50 in assay [8] is 32.4 µM; in assay [9], 3.15 µM (inactive); in assay [10], > 100 µM (inactive); in assay [18], 27.3 µM (inactive); in assay [11] it was 11.9 µM (inactive); in assay [12] it was 56.8 µM (inactive). In addition, the GI50 in assay [19] was 22.6 µM (inactive); in assay [13] it was 60.5 µM (inactive); in [14] it was 52.7 µM (inactive); in assay [15], 46.7 µM (inactive); in assay [16] it was 66.7 µM (inactive); in assay [17] it was > 100 µM (inactive).
Consider `CC(=O)OC1CCC2(C)C(CCC3C2CCC2(C)C(c4ccc(=O)oc4)C(OC(C)=O)CC32O)C1` (stereo not given), for which the GI50 in [1] was 0.0169 µM (active); in assay [2], 0.016 µM (active); in assay [3] it was 0.015 µM (active); in assay [4], 0.0154 µM (active); in assay [5], 0.0397 µM (active); in [6], 0.0173 µM (active). Also, the GI50 in assay [7] was 0.0125 µM (active); in assay [8], 0.0136 µM; in [9] it was 0.0277 µM (active); in assay [10], 0.0293 µM (active); in [18], 0.0163 µM (active); in assay [11] it was 0.0164 µM (active). Further, the GI50 is 0.0161 µM (active) in assay [19]; 0.023 µM (active) in assay [13]; 0.0135 µM (active) in assay [14]; 0.0184 µM (active) in assay [15]; 0.0162 µM (active) in [16]; 0.0263 µM (active) in [17].
In the case of `OC[C@H]1O[C@@H](n2cnc3cncnc32)[C@H](O)[C@@H]1O` [NEBULARINE], the GI50 is 1.16 µM (inactive) in assay [1]; 2 µM (inactive) in assay [2]; 2.45 µM (inactive) in [3]; 0.326 µM (active) in [4]; 1.4 µM (inactive) in assay [5]; 0.64 µM (active) in assay [6]. Further, the GI50 in assay [7] is 1.12 µM (inactive); in assay [8] it was 0.692 µM; in assay [9], 1.39 µM (inactive); in [10], 1.45 µM (inactive); in [18] it was 1.26 µM (inactive); in assay [11] it was 0.307 µM (active). In addition, the GI50 is 1.65 µM (inactive) in assay [19]; 1.61 µM (inactive) in assay [13]; 0.904 µM (active) in [14]; 1.63 µM (inactive) in assay [15]; 1.4 µM (inactive) in assay [16]; 0.377 µM (active) in [17].
